The source of these data is publication PMC7815984 (Biochemical and biophysical research communications, 2020).

The test system of test [1] is rat aortic ring microvessel outgrowth. Put plainly: Rat aortic ring assay of angiogenesis. Type of test: cell-based, Sprague Dawley rats.
Test [2] deals with Human Umbilical Vein Endothelial Cells (HUVECs). As to the kind of experiment: Endothelial cell tube formation assay.
For test [3] the test system is unchanged. The conditions noted are these: 12.5–100 μM; cited from earlier work.
Test [4] has as its target TBD (residues 319–425 of human CRBN) (Homo sapiens, UniProt Q96SW2). It counts as binding. The conditions noted are these: competitive MST.

Chain of TBD (residues 319–425 of human CRBN) (Q96SW2 319-425): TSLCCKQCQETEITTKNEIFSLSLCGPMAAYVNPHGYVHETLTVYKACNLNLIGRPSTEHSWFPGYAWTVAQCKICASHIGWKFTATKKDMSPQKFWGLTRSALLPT

For the compound `CO[C@@H]1[C@H](OC(=O)NC(=O)CCl)CC[C@]2(CO2)[C@H]1[C@@]1(C)O[C@@H]1CC=C(C)C` [TNP-470], the “suppression of angiogenesis (positive control)” value in test [1] (50 μM TNP-470, 4 days) was 92%.

For `NC(=O)c1nnn(Cc2cc(Cl)c(C(=O)c3ccc(Cl)cc3)c(Cl)c2)c1N` [CAI, carboxyamidotriazole], the “suppression of angiogenesis (positive control)” value in test [1] (30 μM CAI, 4 days) is 95%.

Turning to `O=C1CCC(N2C(=O)c3c(F)c(F)c(F)c(F)c3C2=O)C(=O)N1` (stereo not shown) [Gu3041, 2-(2,6-Dioxo-3-piperidyl)-4,5,6,7-tetrafluoro-isoindoline-1,3-dione], the “tube formation over concentration range (in words)” value in test [2] (0.1–10 μM, HUVECs) is given as “reduced tube formation in a concentration-dependent manner”.

As to `O=C1CCC(N2C(=O)c3ccccc3C2=O)C(=O)N1` (stereo not shown) [Thalidomide, 2-phthalimidinoglutarimide], the “microvessel outgrowth (in words)” value in test [1] (100 μM, 4 days) is listed as “not significantly blocked”. Further, the “tube formation, previous results (in words)” value in test [3] is listed as “failed to significantly block tube formation”. Also, in test [2] (100 μM, HUVECs), the “antiangiogenic activity in tube formation (in words)” value is “did not demonstrate potent antiangiogenic activity”.

`CC(C)N1C(=O)NC(=O)C(C)(NC(=O)c2ccccc2)C1=O` (stereo not shown) [Gu3407, N-(1-Isopropyl-5-methyl-2,4,6-trioxo-hexahydropyrimidin-5-yl)benzamide]: in test [4], the “binding to TBD of human CRBN (in words)” value is on record as “did not show any binding”. The “inhibition of tube formation at initial screening dose (in words)” value in test [2] (10 μM, HUVECs, 18 hours) was “no inhibition”. Also, the “inhibition of tube formation over concentration range (in words)” value in test [2] (10–100 μM, HUVECs) is on record as “no significant inhibition”.

In the case of `O=C1c2c(F)c(F)c(F)c(F)c2C(=O)N1c1ccc(F)cc1F` [CPS49], the “inhibition of tube formation compared with vehicle control (positive control)” value in test [2] (30 μM CPS49, HUVECs, 18 hours) is reported as 89%.
